{"source": "patent US10213451B2", "about": "“Methods and compounds for modulating the secretion or expression of adhesion proteins or angiopoietins of cells” (PACIFIC ARROW LIMITED, priority 2004, dated 2019)", "assay_type_in_all_cases": "cell-based, human", "key": {"[1]": {"system": "cadherins expression in ES2 cells", "experiment": "Microarray gene expression, Table 8", "protocol": "(§1) Y/D is the ratio (in folds) of gene expression in cells treated with compound Y as compared with those of the no drug control (D),\n(§2) YM/D is the ratio of gene expression in cells treated with compound YM (ACH-Y, Y without sugar moiety) compared with those of the no drug control (D)\n(§3) Cell culture and drug-treatment.: ES2 cells were seeded in a T-25 flask with 4.5 million cells per flask for 24 hours. Cell culture was replaced with fresh medium with xanifolia-Y (Y) or DMSO no drug control (D) for 24 hours. Cells were then harvested for RNA isolation. Three experiments were done.\n(§4) RNA extraction, labeling, hybridization, and data analysis. RNA was extracted from tumor cells using the Qiagen RNeasy Kit. RNA quality and quantity was checked by the Agilent BioAnalyzer and the NanoDrop® ND-1000 spectrophotometer respectively before further manipulation. The first and second cDNA strands were synthesized from 20 ng of total RNA using the Affymetrix T7 oligo(dT) primer protocol and kit for the two-cycle amplification. To produce amplified biotin-labeled-cRNA, the cDNA was […] by in vitro transcription using the MegaScript kit from Ambion. 15.0 μg of the labeled cRNA was fragmented and re-checked for concentration using the NanoDrop® ND-1000 spectrophotometer. A hybridization cocktail containing Affymetrix spike-in controls and fragmented labeled cRNA was loaded onto the Human U133 Plus 2.0 GeneChip® oligonucleotide array. The Affymetrix array (Affymetrix, Inc. Santa Clara, Calif.) is comprised of over 1,300,000 unique oligonucleotide features that represent greater than 38,500 well-substantiated human genes. The array was hybridized for 16 hours at 45° C. with rotation at 60 rpm then washed and stained with a strepavidin, R-phycoerythrin conjugate stain on the Affymetrix Fluidicis Station 450. Signal amplification was done using biotinylated antistreptavidin. The arrays were scanned using the GeneChip® 3000 confocal laser scanner with autoloader. The images were analyzed and quality control metrics recorded using Affymetrix GCOS software version 1.4. Lastly, the expression value for each gene was calculated using dChip PM-only model based or Plier algorithm.\n(§5) Pairwise comparisons were made as follows: Treated vs. Control (Y vs. D), Modified Drug vs Control (YM/ACY-H vs. D) and Treated vs. Modified Drug (Y vs. YM/ACH-Y) Cel files analyzed using the Bioconductor package of R Statistical programming. Limma analysis generated a reasonable number of changing genes between the samples.\n(§6) The raw data in the .CEL files were normalized by the GCRMA method (robust multi-array analysis). It is implemented in Bioconductor (http://www.bioconductor.org/). The raw signal intensity data were normalized, background corrected and summarized based on certain statistical models, and an expression value, in log 2-scale, is obtained per chip per probe set. Then the null hypothesis was tested that there's no significant changes in gene expression between the treatment pairs. This was done by LIMMA and is also implemented in Bioconductor. It uses empirical Bayes method to estimate the variance in gene expression. One comparison was made, namely, High Grade vs. Low Grade. The raw p-values were adjusted by the Benjamnin-Hochberg method for false discovery rate (FDR) control. All data sets contained a significant number of genes with a p-value less than 0.05, which is that the probability that a gene is NOT differential expressed (false positive) is 1:20."}, "[2]": {"system": "regulator of G-protein expression in ES2 cells", "experiment": "Microarray gene expression, Table 14", "protocol": "as §1, §2, §3, §4, §5, §6"}, "[3]": {"system": "collagen expression in ES2 cells", "experiment": "Microarray gene expression, Table 5", "protocol": "as §1, §2, §3, §4, §5, §6"}}, "data": [{"smiles": "C/C=C(/C)C(=O)O[C@H]1[C@H](OC(=O)/C(C)=C\\C)[C@@]2(CO)C(CC1(C)C)C1=CCC3[C@@]4(C)CC[C@H](O[C@@H]5OC(C(=O)O)[C@@H](O)C(O[C@@H]6O[C@@H](CO)C(O)C6O)C5O[C@@H]5OC(CO)[C@H](O)C(O)C5O)C(C)(C)C4CC[C@@]3(C)[C@]1(C)[C@@H](O)[C@H]2O", "note": "(stereo partly drawn) [Xanifolia-Y, 3-O-[β-D-galactopyranosyl (1→2)]-α-L-arabinofuranosy (1→3)-β-D-glucuronopyranosyl-21,22-O-diangeloyl-3β, 15α, 16α, 21β, 22α, 28-hexahydroxyolean-12-ene]", "values": [{"measurement": "CTNNB1 catenin (cadherin-associated protein), beta 1, 88 kDa, gene expression ratio to no drug control (D)", "setting": "[1]; probe 201533_at", "result": "−1.5", "unit": "folds"}, {"measurement": "CTNNAL1 catenin (cadherin-associated protein), alpha-like 1, gene expression ratio to no drug control (D)", "setting": "[1]; probe 202468_s_at", "result": "−1.9", "unit": "folds"}, {"measurement": "CDH2 cadherin 2, type 1, N-cadherin (neuronal), gene expression ratio to no drug control (D)", "setting": "[1]; probe 203440_at", "result": "−1.4", "unit": "folds"}, {"measurement": "CDH5 cadherin 5, type 2, VE-cadherin, gene expression ratio to no drug control (D)", "setting": "[1]; probe 204677_at", "result": "−1.5", "unit": "folds"}, {"measurement": "CDH13 cadherin 13, H-cadherin (heart), gene expression ratio to no drug control (D)", "setting": "[1]; probe 204726_at", "result": "−1.8", "unit": "folds"}, {"measurement": "CDH12 cadherin 12, type 2 (N-cadherin 2), gene expression ratio to no drug control (D)", "setting": "[1]; probe 207149_at", "result": "−1.7", "unit": "folds"}, {"measurement": "CTNND1 catenin (cadherin-associated, protein), delta 1, gene expression ratio to no drug control (D)", "setting": "[1]; probe 208407_s_at", "result": "−1.5", "unit": "folds"}, {"measurement": "CTNNA1 catenin (cadherin-associated protein), alpha 1, 102 kDa, gene expression ratio to no drug control (D)", "setting": "[1]; probe 210844_x_at", "result": "−1.4", "unit": "folds"}, {"measurement": "CDH13 cadherin 13, H-cadherin (heart), gene expression ratio to no drug control (D)", "setting": "[1]; probe 244091_at", "result": "−2.0", "unit": "folds"}, {"measurement": "RGS4 regulator of G-protein signalling 4, gene expression ratio to no drug control (D)", "setting": "[2]; probe 204337_at", "result": "−3.4", "unit": "folds"}, {"measurement": "RGS4 regulator of G-protein signalling 4, gene expression ratio to no drug control (D)", "setting": "[2]; probe 204338_s_at", "result": "−2.5", "unit": "folds"}, {"measurement": "RGS4 regulator of G-protein signalling 4, gene expression ratio to no drug control (D)", "setting": "[2]; probe 204339_s_at", "result": "−3.5", "unit": "folds"}, {"measurement": "P4HB procollagen-proline, 2-oxoglutarate 4-dioxygenase, beta polypeptide, gene expression ratio to no drug control (D)", "setting": "[3]; probe 200654_at", "result": "−1.6", "unit": "folds"}, {"measurement": "P4HB procollagen-proline, 2-oxoglutarate 4-dioxygenase, beta polypeptide, gene expression ratio to no drug control (D)", "setting": "[3]; probe 200656_s_at", "result": "−1.8", "unit": "folds"}, {"measurement": "PLOD1 procollagen-lysine 1,2-oxoglutarate 5-dioxygenase 1, gene expression ratio to no drug control (D)", "setting": "[3]; probe 200827_at", "result": "−1.7", "unit": "folds"}, {"measurement": "COL6A3 collagen, type VI, alpha 3, gene expression ratio to no drug control (D)", "setting": "[3]; probe 201438_at", "result": "−2.4", "unit": "folds"}, {"measurement": "PLOD3 procollagen-lysine, 2-oxoglutarate 5-dioxygenase 3, gene expression ratio to no drug control (D)", "setting": "[3]; probe 202185_at", "result": "−1.3", "unit": "folds"}, {"measurement": "COL1A1 collagen, type I, alpha 1, gene expression ratio to no drug control (D)", "setting": "[3]; probe 202311_s_at", "result": "−1.6", "unit": "folds"}, {"measurement": "PCOLCE procollagen C-endopeptidase enhancer, gene expression ratio to no drug control (D)", "setting": "[3]; probe 202465_at", "result": "−1.3", "unit": "folds"}, {"measurement": "PLOD2 procollagen-lysine, 2-oxoglutarate 5-dioxygenase 2, gene expression ratio to no drug control (D)", "setting": "[3]; probe 202619_s_at", "result": "−1.7", "unit": "folds"}, {"measurement": "PLOD2 procollagen-lysine, 2-oxoglutarate 5-dioxygenase 2, gene expression ratio to no drug control (D)", "setting": "[3]; probe 202620_s_at", "result": "−1.4", "unit": "folds"}, {"measurement": "P4HA2 procollagen-proline, 2-oxoglutarate 4-dioxygenase, alpha polypeptide II, gene expression ratio to no drug control (D)", "setting": "[3]; probe 202733_at", "result": "−1.4", "unit": "folds"}, {"measurement": "COL5A1 collagen, type V, alpha 1, gene expression ratio to no drug control (D)", "setting": "[3]; probe 203325_s_at", "result": "−1.7", "unit": "folds"}, {"measurement": "P4HA1 procollagen-proline, 2-oxoglutarate 4-dioxygenase, alpha polypeptide I, gene expression ratio to no drug control (D)", "setting": "[3]; probe 207543_s_at", "result": "−2.0", "unit": "folds"}, {"measurement": "COL13A1 collagen, type XIII, alpha 1, gene expression ratio to no drug control (D)", "setting": "[3]; probe 208535_x_at", "result": "−1.4", "unit": "folds"}, {"measurement": "COL18A1 collagen, type XVIII, alpha 1, gene expression ratio to no drug control (D)", "setting": "[3]; probe 209081_s_at", "result": "−1.7", "unit": "folds"}, {"measurement": "COL13A1 collagen, type XIII, alpha 1, gene expression ratio to no drug control (D)", "setting": "[3]; probe 211343_s_at", "result": "−1.9", "unit": "folds"}, {"measurement": "COL13A1 collagen, type XIII, alpha 1, gene expression ratio to no drug control (D)", "setting": "[3]; probe 211809_x_at", "result": "−2.0", "unit": "folds"}, {"measurement": "COL4A2 collagen, type IV, alpha 2, gene expression ratio to no drug control (D)", "setting": "[3]; probe 211966_at", "result": "−1.8", "unit": "folds"}, {"measurement": "COL4A1 collagen, type IV, alpha 1, gene expression ratio to no drug control (D)", "setting": "[3]; probe 211981_at", "result": "−1.6", "unit": "folds"}, {"measurement": "COL6A1 collagen, type VI, alpha 1, gene expression ratio to no drug control (D)", "setting": "[3]; probe 212091_s_at", "result": "−1.6", "unit": "folds"}, {"measurement": "COL5A1 collagen, type V, alpha 1, gene expression ratio to no drug control (D)", "setting": "[3]; probe 212489_at", "result": "−1.5", "unit": "folds"}, {"measurement": "COL4A5 collagen, type IV, alpha 5 (Alport syndrome), gene expression ratio to no drug control (D)", "setting": "[3]; probe 213110_s_at", "result": "−1.6", "unit": "folds"}, {"measurement": "COL6A2 collagen, type VI, alpha 2, gene expression ratio to no drug control (D)", "setting": "[3]; probe 213290_at", "result": "−1.6", "unit": "folds"}, {"measurement": "COL4A6 collagen, type IV, alpha 6, gene expression ratio to no drug control (D)", "setting": "[3]; probe 213992_at", "result": "−2.0", "unit": "folds"}, {"measurement": "COL10A1 collagen, type X, alpha 1, gene expression ratio to no drug control (D)", "setting": "[3]; probe 217428_s_at", "result": "−3.0", "unit": "folds"}, {"measurement": "COL5A2 collagen, type V, alpha 2, gene expression ratio to no drug control (D)", "setting": "[3]; probe 221729_at", "result": "−1.3", "unit": "folds"}, {"measurement": "COL5A2 collagen, type V, alpha 2, gene expression ratio to no drug control (D)", "setting": "[3]; probe 221730_at", "result": "−1.6", "unit": "folds"}]}]}
